US10350206B2, “Benzyl substituted indazoles as BUB1 inhibitors” (Bayer Pharma Aktiengesellschaft, priority 2014, dated 2019)
Where two headings read alike, the source gives them in different places.

Columns and labels:
[1] = test system: Bub1 kinase (histone 2A phosphorylation); assay: H2A Formation-Assay (cell-based mechanistic assay, co-treatment with Nocodazole); settings: 16 h, Nocodazole 1 μg/ml together with test compound for 16 h; read-out: Biological Assay 4.1: H2A Formation IC50
[2] = molecular target: T1, catalytic domain of human Bub1 (amino acids 704-1085) (Homo sapiens, UniProt O43683); assay: Equilibrium probe competition assay (TR-FRET kinase binding assay); settings: read-out: Assay 5 IC50
T1 construct: catalytic domain of human Bub1 (amino acids 704-1085); His6 (N); made in house; host or cells: Hi5 insect cells
Description: The half-life of prodrugs (Table 3) poses a challenge for the verification of their biological activity. The Bub1 enzymatic activity assay (as per Biological Assay 1.0 infra) requires a minimum reaction time of 60 minutes in order to be able to assess the inhibitory activity of the compounds. During this time typically 20% to 60% of the prodrugs have been already converted to their corresponding drugs at the pH of 7.5 at which the assay is performed. Ideally one would perform the biological assay at a pH at which the prodrug is stable (e.g. pH 4). […] Alternatively, an assay requiring shorter incubation times would better estimate the binding affinities of the prodrugs. […] Extrapolating the stability data from Tables 3 and 4, one would expect at this time point most of the compound present in the test solution to be the prodrug.
FIGS. 1 and 2 combine the results from Biological Assay 5 with those from Biological Assay 6. The binding affinities over time of drug and prodrug pairs are shown as pIC50 together with the prodrug stability, and the pIC50 to be expected if only the drug present in the sample was responsible for the activity in the assay. Extrapolating the pIC50 from these graphs to time 0 (at which 100% of prodrug is present in the sample), the actual affinity of the drug and prodrug can be inferred. Secondly, looking at the differences between expected and real pIC50 an estimate can be made about the contribution of the prodrug to the observed activity.
Biological Assay 5.0: Equilibrium Probe Competition Assay:
Bub1 binding affinity of compounds described in the present invention were quantified using a time-resolved fluorescence energy transfer (TR-FRET) kinase binding assay which measures displacement of the synthetic fluorescent probe 5-[({2-[2-({2-[1-(4-ethoxy-2,6-difluorobenzyl)-1H-indazol-3-yl]-4-(pyridin-4-ylamino)pyrimidin-5-yl}oxy)ethoxy]ethyl}carbamothioyl)amino]-2-(6-hydroxy-3-oxo-3H-xanthen-9-yl)benzoic acid (6-5-1) by the (recombinant) catalytic domain of human Bub1 (amino acids 704-1085). The enzyme was expressed in Hi5 insect cells with N-terminal 6×His/AviTag® sequences, purified by affinity- (Ni-NTA) and size exclusion chromatography and site-specific biotinylated ex-vivo using a commercially available kit (Avidity).
In a typical assay 11 different concentrations of each compound (0.1 nM, 0.33 nM, 1.1 nM, 3.8 nM, 13 nM, 44 nM, 0.15 μM, 0.51 μM, 1.7 μM, 5.9 μM and 20 μM) were tested in duplicate within the same microtiter plate. To this end, 100-fold concentrated compound solutions (in DMSO) were made by serial dilution (1:3.4) of freshly prepared 2 mM stocks in a clear low volume 384-well source microtiter plate (Greiner Bio-One, Frickenhausen, Germany), from which 50 nl of compounds were transferred into a black low volume test microtiter plate from the same supplier. Subsequently 2 μL of a solution containing biotinylated Bub1 (the final concentration of Bub1 was adjusted depending on the activity of the enzyme lot in order to be within the linear dynamic range of the assay: typically ˜[…] were used) and 1 nM Streptavidin Terbium Cryptate (Cisbio, No. 610SATLB) in aqueous assay buffer [50 mM Tris/HCl pH 7.5, 200 mM potassium chloride (KCl), 1.0 mM dithiothreitol (DTT), 0.1 mM sodium ortho-vanadate, 1% (v/v) glycerol, 0.01% (w/v) bovine serum albumine (BSA), 0.005% (v/v) Triton X-100 (Sigma), were added to the compounds in the test plate and the mixture was incubated for 15 min at 22° C. to allow pre-equilibration of the putative enzyme-inhibitor complexes before the start of the probe competition reaction, which was initiated by the addition of 3 μL 1.67-fold concentrated solution (in assay buffer) of 6-5-1 (final concentration: 1.5 nM). The resulting mixture (5 μL final volume) was incubated at 22° C. during 0, 15, 30, 60, 120, 240 and 1440 min. […]

SMILES	IC50 [1]	IC50 ([2]; Time 15 min)	IC50 ([2]; Time 30 min)	IC50 ([2]; Time 60 min)	IC50 ([2]; Time 90 min)	IC50 ([2]; Time 120 min)	IC50 ([2]; Time 240 min)	IC50 ([2]; Time 1440 min)
COc1cnc(-c2nn(Cc3c(F)cc(OCCO)cc3F)c3ccccc23)nc1Nc1ccnc(C)c1 [Example 2-1-2, 2-{3,5-difluoro-4-[(3-{5-methoxy-4-[(2-methylpyridin-4-yl)amino]pyrimidin-2-yl}-1H-indazol-1-yl)methyl]phenoxy}ethanol]	8.7 nM	1.6 nM	3.5 nM	2.2 nM	3.2 nM	2.9 nM	4 nM	2.4 nM
COc1cnccc1Nc1nc(-c2nn(Cc3c(F)cc(OCCO)cc3F)c3ccccc23)ncc1OC [Example 2-1-3, 2-{3,5-difluoro-4-[(3-{5-methoxy-4-[(3-methoxypyridin-4-yl)amino]pyrimidin-2-yl}-1H-indazol-1-yl)methyl]phenoxy}ethanol]	43 nM	1.7 nM	1.3 nM	0.9 nM	0.54 nM	0.49 nM	0.31 nM	0.2 nM
